Data published in patent US20180362654A1, “Methods for Reducing or Preventing Growth of Tumors Resistant to EGFR and/or ErbB3 Blockade” (Regeneron Pharmaceuticals, Inc., priority 2015, published 2018).

Experiments:
[1] = tested on: SNU1076 cells; experiment: Tumor cell growth assay (MTS), SNU1076 cells expressing FGFR3-TACC3 fusion proteins; format: cell-based, human; details: 72 hours, 5 μM BYL719
Protocol: (§1) The bar graphs show the relative cell growth in each treatment group, as determined by MTS assay. Error bars show the standard deviation, n=8. […] The bar graphs show the relative cell growth in each treatment group, as determined by MTS assay. Error bars show the SD, n=8. FIGS. 11C-11D respectively show SNU1076 or Detroit 562 cells expressing wild-type FGFR3 or FGFR3-TACC3 fusion proteins that were grown for 72 hours in the presence of vehicle or 5 μM PI3K inhibitor BYL719. The bar graphs show the relative cell growth in each treatment group, as determined by MTS assay. Error bars show the standard deviation, n=8. […] Cell lysates were prepared and subjected to western blot with antibodies against phospho-ERK, ERK, phospho-AKT, or AKT.
(§2) To assess tumor cell growth, 2-3,000 cells were plated in 96-well plates (n=8 replicate wells per treatment group) in serum-containing medium. The day after plating, the baseline (0 hour) cell number was determined by MTS assay using the CellTiter96 Aqueous One Solution Cell Proliferation Assay (Promega). […] At 72 hours, the final cell number was determined by MTS assay. The relative cell growth for each treatment group was determined by subtracting the baseline MTS reading from the final MTS reading. […]

[2] = tested on: Detroit 562 cells; experiment: Tumor cell growth assay (MTS), Detroit 562 cells expressing FGFR3-TACC3 fusion proteins; format: cell-based, human; details: 72 hours, 5 μM BYL719
Protocol: as §1, §2

[3] = biological target: T1, MET (Homo sapiens, UniProt P08581); experiment: MET phosphorylation by western blot; format: cell-based; details: FaDu V2 cells; 100 nM PHA665752; 30 minutes
T1 construct: Fadu V2 cells that were treated for 30 minutes with control antibody; endogenous in cells

[4] = tested on: ERK; experiment: ERK activation by western blot (phospho-ERK); format: cell-based, human; details: REGN1400 5 μg/ml, REGN955 10 μg/ml, AZD4547 25 nM
Protocol: (§3) For analysis of cell signaling by western blot, tumor cells were treated with the following reagents: ErbB3 blocking REGN1400, EGFR blocking antibody REGN955, MEK inhibitor GSK1120212 (Selleckchem), FGFR TKI AZD4547 (Selleckchem), MET TKI PHA665752 (Sigma), PI3K inhibitor BYL719, human NRG1 (R&D Systems), human EGF (R&D Systems). Following treatment, cell lysates were subjected to western blot with the following antibodies: phospho-ErbB3 (Cell Signaling Technology (CST), cat. #4561), EGFR (CST, cat. #2646), phospho-EGFR (CST, cat. #2234), Akt (CST, cat. #9272), phospho-Akt (CST, cat. #4060), ERK (CST, cat. #4695), phospho-ERK (CST, cat. #4370), MET (CST, cat. #8198), phospho-MET (CST, cat. #3077), ErbB3 (CST, cad.#4754), phospho-FGFR (CST, cat. #3476).

[5] = tested on: FGFR3; experiment: FGFR3 phosphorylation by anti-phosphotyrosine immunoprecipitation and western blot; format: cell-based, human; details: FaDu V2 cells; 25 nM AZD4547; 1 hour
Protocol: FIGS. 4A-4F provide evidence that FGFR3 is activated in FaDu resistant variant cell lines and maintains ERK signaling upon EGFR blockade. […] Active RTKs of note are boxed and labeled. The unlabeled spots on the corners of the membranes are positive controls. […] The presence of FGFR3 and Src in the immunoprecipitates was assessed by western blot. […] Following treatment, cell lysates were subjected to western blot with antibodies against phospho-ERK, ERK, phospho-MET and MET. […] Following treatment, cell lysates were subjected to immunoprecipitation with anti-phosphotyrosine antibody 4G10 conjugated to agarose beads. The presence of FGFR3 and Src in the immunoprecipitates was assessed by western blot. […] Following treatment, cell lysates were subjected to western blot with antibodies against phospho-ERK, ERK, phospho-AKT and AKT.
To assess the tyrosine phosphorylation status of FGFR3-TACC3 fusion proteins in FaDu V1 and V2 cell lines, cells growing in 10 cm dishes were lysed in 1 ml of buffer (150 mM NaCl/20 mM Tris, pH 7.5/1% Triton X-100) containing Halt Protease and Phosphatase Inhibitor Cocktail (Thermo Scientific). […]

[6] = tested on: AKT; experiment: AKT activation by western blot (phospho-AKT); format: cell-based, human; details: REGN1400 5 μg/ml, REGN955 10 μg/ml, AZD4547 25 nM
Protocol: as §3

[7] = tested on: NCI-H1975 cells; experiment: Tumor cell growth assay (MTS), NCI-H1975 cells expressing FGFR3-TACC3 fusion proteins; format: cell-based, human; details: 72 hours, 50 nM AZD9291
Protocol: as §1, §2

[8] = FaDu V2 cells, GSK1120212 100 nM, PHA665752 100 nM

T1 sequence (P08581 25-1390): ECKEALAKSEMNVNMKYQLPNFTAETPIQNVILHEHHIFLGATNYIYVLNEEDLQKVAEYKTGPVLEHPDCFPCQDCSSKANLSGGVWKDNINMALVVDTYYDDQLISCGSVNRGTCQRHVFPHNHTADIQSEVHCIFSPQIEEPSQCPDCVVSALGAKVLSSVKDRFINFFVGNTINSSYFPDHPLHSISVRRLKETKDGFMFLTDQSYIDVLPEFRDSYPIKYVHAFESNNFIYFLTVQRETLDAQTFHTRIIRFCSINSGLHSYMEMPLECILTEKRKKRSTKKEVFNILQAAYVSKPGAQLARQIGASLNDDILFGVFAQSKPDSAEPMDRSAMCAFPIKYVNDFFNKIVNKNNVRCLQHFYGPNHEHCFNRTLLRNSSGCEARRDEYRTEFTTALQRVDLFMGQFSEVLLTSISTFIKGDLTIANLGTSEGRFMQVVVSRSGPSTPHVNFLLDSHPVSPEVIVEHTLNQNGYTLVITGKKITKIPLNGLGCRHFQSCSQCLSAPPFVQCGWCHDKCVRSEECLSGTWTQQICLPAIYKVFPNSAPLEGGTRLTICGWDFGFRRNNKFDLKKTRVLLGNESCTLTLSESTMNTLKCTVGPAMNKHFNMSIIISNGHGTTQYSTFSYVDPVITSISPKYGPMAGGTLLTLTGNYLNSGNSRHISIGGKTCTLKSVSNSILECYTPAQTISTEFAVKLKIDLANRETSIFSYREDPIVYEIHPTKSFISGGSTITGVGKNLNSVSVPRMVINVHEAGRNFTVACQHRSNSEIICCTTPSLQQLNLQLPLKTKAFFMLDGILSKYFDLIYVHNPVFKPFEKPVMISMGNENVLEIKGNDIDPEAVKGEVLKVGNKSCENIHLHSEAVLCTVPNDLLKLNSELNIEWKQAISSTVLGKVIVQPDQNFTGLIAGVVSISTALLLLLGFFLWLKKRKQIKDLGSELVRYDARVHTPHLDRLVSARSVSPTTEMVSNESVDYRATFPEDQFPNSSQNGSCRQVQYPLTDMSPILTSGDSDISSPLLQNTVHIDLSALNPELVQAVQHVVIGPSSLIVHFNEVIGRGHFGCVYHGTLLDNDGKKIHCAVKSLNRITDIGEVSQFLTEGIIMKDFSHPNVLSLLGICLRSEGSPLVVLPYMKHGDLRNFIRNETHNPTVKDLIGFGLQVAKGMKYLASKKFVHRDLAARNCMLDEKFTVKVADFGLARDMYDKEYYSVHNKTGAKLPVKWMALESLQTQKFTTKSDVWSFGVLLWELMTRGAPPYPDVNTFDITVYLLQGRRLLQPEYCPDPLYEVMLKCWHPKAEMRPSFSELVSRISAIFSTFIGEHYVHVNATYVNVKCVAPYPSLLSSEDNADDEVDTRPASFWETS

Question: With Cc1nc(NC(=O)N2CCC[C@H]2C(N)=O)sc1-c1ccnc(C(C)(C)C(F)(F)F)c1 [BYL719, alpelisib] as the molecule, how does the “growth inhibition in cells expressing FGFR3-TACC3 fusion proteins” value (“growth inhibition” for short) [1] read?
Answer: Its value is “neither of the FGFR3-TACC3 fusion proteins was able to confer substantial resistance”.

Question: What about the “growth inhibition” value [2] of the same molecule?
Answer: Its value is “neither of the FGFR3-TACC3 fusion proteins was able to confer substantial resistance”.

Question: How did the “inhibition of MET phosphorylation” value [3] turn out when Cc1[nH]c(/C=C2\C(=O)Nc3ccc(S(=O)(=O)Cc4c(Cl)cccc4Cl)cc32)c(C)c1C(=O)N1CCC[C@@H]1CN1CCCC1 [PHA665752] was run?
Answer: Its value is “completely blocking MET phosphorylation”.

Question: What about the “inhibition of ERK activation” value [4, 8] of the same molecule?
Answer: The value was “did not inhibit ERK activation”.

Question: How did the “inhibition of FGFR3 phosphorylation” value [5] turn out when COc1cc(CCc2cc(NC(=O)c3ccc(N4CC(C)NC(C)C4)cc3)n[nH]2)cc(OC)c1 (stereo not shown) [AZD4547] was run?
Answer: The value was “completely blocked FGFR3 phosphorylation”.

Question: What about the “inhibition of ERK activation” value ([4]; FaDu V1 cells) of the same molecule?
Answer: The value was “either no effect or a partial effect”.

Question: What about the “inhibition of ERK activation” value [4, 8] of the same molecule?
Answer: The value was “either no effect or a partial effect”.

Question: What about the “inhibition of AKT activation” value ([6]; FaDu V1 cells) of the same molecule?
Answer: Its value is “no effect on AKT activation”.

Question: And the “inhibition of AKT activation” value ([6]; FaDu V2 cells, GSK1120212 100 nM)?
Answer: Its value is “no effect on AKT activation”.

Question: For C=CC(=O)Nc1cc(Nc2nccc(-c3cn(C)c4ccccc34)n2)c(OC)cc1N(C)CCN(C)C [AZD9291], which “growth inhibition” value [7] is on record?
Answer: Its value is “promote resistance”.
